Measurements published in PubChem BioAssay AID2060891 (Molecular Pharmacology Branch, DTP, NCI, 2025).

System: K98450-129-R-PDC complex spheroid growth, percent test/control
Assay: Anticancer human tumor K98450-129-R-PDC patient-derived colon adenocarcinoma cell line growth inhibition [RAS]
Details: for IC50: curve of first compound; for viability, T/C: stronger effect = lower value
Description: RAS pathway inhibitors in Combinations in Complex Spheroids
A high-throughput screen of multi-cell type tumor spheroids was designed to identify active combinations of RAS pathway inhibitors and targeted small molecules. Complex spheroids include a stromal component modeled by human endothelial cells (HUVEC) and fibroblasts modeled by human mesenchymal stem cells (MSCs). The concentration ranges selected for each drug and investigational agent were based upon clinically achievable concentrations if the clinical Cmax of the agent was known.
Compounds. The drugs and investigational agents: abemaciclib (NSC768073), cobimetinib (NSC768068), divarasib (GDC6063, NSC841802), docetaxel (NSC628503), GDC-1971 (RLY-1971, NSC841576), gemcitabine (NSC613327), inavolisib (NSC800729), ipatasertib (NSC767898), KB-0742 (NSC834161), MRTX-1133 (NSC836407), osimertinib (NSC779217), RMC-4630 (NSC839698), RMC-6236 (NSC851965), RMC-6291 (NSC852671), Ro-3306 (NSC812927), sapanisertib (NSC764658), SN-38 (NSC673596), staurosporine (NSC755774), SY5609 (NSC837396), and tovorafenib (DAY101, NSC766906), were obtained from the National Cancer Institute (NCI) Developmental Therapeutics Program Chemical Repository. The FDA-approved anticancer drug set is available from the NCI Developmental Therapeutics Program. […] The stock solutions were prepared in dimethyl sulfoxide (DMSO, Sigma-Aldrich, St. Louis, MO, cat. D2650) at 800-fold the tested concentration and stored at -70 degrees C prior to their use. All drugs and investigational agents were tested over a range starting from a high concentration at or near the clinical Cmax and decreasing in half-log increments. If the clinical Cmax for an agent had not been determined, the highest concentration tested was 10 microM.
Cell Culture. All cells were maintained in an incubator at 37 degrees C and 5% CO2 with 95% humidity. The PDC lines were cultured according to standard operating procedures established by the NCI PDMR. All PDCs were thawed and cultured in Matrigel-coated flasks prepared with a working solution of 1X Ham's F-12 nutrient mix, without supplementation (Invitrogen, Waltham, MA, cat. 11765054), 100 U/mL penicillin-streptomycin (Invitrogen, cat. 15140122), and 2.5% Matrigel (Corning Inc., Corning, NY, cat. 354248) for the first three passages. The 362531-283-R-J2-PDC and 782815-120-R-J1-PDC lines were cultured in 6C/Colon 1B media, which includes advanced DMEM/F-12 (Thermo Fisher Scientific, cat. 12634028), 10 mM HEPES (Thermo Fisher Scientific, cat. 15630080), 1X GlutaMAX supplement (Thermo Fisher Scientific, cat. 35050061), 0.1 mg/mL primocin (InvivoGen, San Diego, CA, cat. ant-pm-2), 10% defined fetal bovine serum, heat inactivated (HyClone Laboratories Inc., Logan, UT, cat. SH30070.03HI), 50% L-WRN conditioned media (ATCC, cat. CRL-3276), 1.25 mM N-Acetyl-L-cysteine (Sigma-Aldrich, cat. A9165), 10 mM nicotinamide (Sigma-Aldrich, cat. N0636), 1X B-27 supplement (Thermo Fisher Scientific, cat. 17504044), 1X N-2 supplement (Thermo Fisher Scientific, cat. 17502048), 50 ng/mL human EGF (Thermo Fisher Scientific, cat. PHG0311), and 10 microM Y-27632 dihydrochloride (Tocris Bioscience, cat. 1254). The K12877-001-R-J1-PDC line was cultured in 6I media, which includes all 6C/Colon 1B media plus 10 ng/mL human FGF-10 (PeproTech, cat. 100-26), 1 ng/mL human FGF-2 (PeproTech, cat. 100-18B), 1 µM prostaglandin E2 (Tocris Bioscience, cat. 2296), […] hydrocortisone (Sigma-Aldrich, cat. H4001), and […] bovine insulin (Sigma-Aldrich, cat. I6634). The K86415-001-R-J1-PDC line was cultured in 6D media, which includes all 6C/Colon 1B media components minus the L-WRN conditioned media. The 485176-168-R4-J1-PDC was cultured in PANC media, which includes all 6C/Colon 1B media plus 100 ng/mL human FGF-10 (PeproTech, cat. 100-26), 500 nM SB-431542 (Selleckchem, cat. S1067), and 10 nM gastrin (Tocris Bioscience, cat. 3006). […]

[1] = second compound 0.0316 µM, first compound 0.0316 µM
[2] = second compound 0.0316 µM, first compound 0.1 µM
[3] = second compound 0.1 µM, first compound 0.0316 µM
[4] = second compound 0.1 µM, first compound 0.1 µM
[5] = second compound 0.316 µM, first compound 0.0316 µM
[6] = second compound 0.316 µM, first compound 0.1 µM
[7] = second compound 1 µM, first compound 0.0316 µM
[8] = second compound 1 µM, first compound 0.1 µM
[9] = second compound 3.16 µM, first compound 0.0316 µM
[10] = second compound 3.16 µM, first compound 0.1 µM
[11] = second compound 10 µM, first compound 0.0316 µM
[12] = second compound 10 µM, first compound 0.1 µM
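Further: spheroids exposed to agents for seven days before the viability readout.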
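Wherever viability, T/C is given: luminescence used as a proxy for viable cell amount.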

SMILES: CC(C)n1nc(-c2ccc3oc(N)nc3c2)c2c(N)ncnc21 + C#Cc1c(F)ccc2cc(O)cc(-c3ncc4c(N5CC6CCC(C5)N6)nc(OCC56CCCN5CC(F)C6)nc4c3F)c12
- IC50 (second compound 0.0316 µM): > 0.1 µM
- IC50 (second compound 0.1 µM): > 0.1 µM
- IC50 (second compound 0.316 µM): > 0.1 µM
- IC50 (second compound 1 µM): > 0.1 µM
- IC50 (second compound 3.16 µM): > 0.1 µM
- IC50 (second compound 10 µM): > 0.1 µM
- viability, T/C (second compound 0.0316 µM, first compound 0.000316 µM): 110%
- viability, T/C (second compound 0.0316 µM, first compound 0.001 µM): 104%
- viability, T/C (second compound 0.0316 µM, first compound 0.00316 µM): 101%
- viability, T/C (second compound 0.0316 µM, first compound 0.01 µM): 98.4%
- viability, T/C [1]: 86.5%
- viability, T/C [2]: 78.3%
- viability, T/C (second compound 0.1 µM, first compound 0.000316 µM): 114%
- viability, T/C (second compound 0.1 µM, first compound 0.001 µM): 103%
- viability, T/C (second compound 0.1 µM, first compound 0.00316 µM): 102%
- viability, T/C (second compound 0.1 µM, first compound 0.01 µM): 95.9%
- viability, T/C [3]: 89.2%
- viability, T/C [4]: 74.4%
- viability, T/C (second compound 0.316 µM, first compound 0.000316 µM): 109%
- viability, T/C (second compound 0.316 µM, first compound 0.001 µM): 105%
- viability, T/C (second compound 0.316 µM, first compound 0.00316 µM): 104%
- viability, T/C (second compound 0.316 µM, first compound 0.01 µM): 98.8%
- viability, T/C [5]: 93.1%
- viability, T/C [6]: 71.9%
- viability, T/C (second compound 1 µM, first compound 0.000316 µM): 106%
- viability, T/C (second compound 1 µM, first compound 0.001 µM): 107%
- viability, T/C (second compound 1 µM, first compound 0.00316 µM): 95.1%
- viability, T/C (second compound 1 µM, first compound 0.01 µM): 93.8%
- viability, T/C [7]: 82.9%
- viability, T/C [8]: 74.7%
- viability, T/C (second compound 3.16 µM, first compound 0.000316 µM): 95.6%
- viability, T/C (second compound 3.16 µM, first compound 0.001 µM): 94.8%
- viability, T/C (second compound 3.16 µM, first compound 0.00316 µM): 92%
- viability, T/C (second compound 3.16 µM, first compound 0.01 µM): 84.4%
- viability, T/C [9]: 80.1%
- viability, T/C [10]: 66.7%
- viability, T/C (second compound 10 µM, first compound 0.000316 µM): 84.9%
- viability, T/C (second compound 10 µM, first compound 0.001 µM): 82.9%
- viability, T/C (second compound 10 µM, first compound 0.00316 µM): 87.4%
- viability, T/C (second compound 10 µM, first compound 0.01 µM): 77%
- viability, T/C [11]: 69.6%
- viability, T/C [12]: 62.2%

SMILES: C[C@@H](NC(=O)c1ncnc(N)c1Cl)c1ncc(C(=O)Nc2cc(C(F)(F)F)c(Cl)cn2)s1 + C#Cc1c(F)ccc2cc(O)cc(-c3ncc4c(N5CC6CCC(C5)N6)nc(OCC56CCCN5CC(F)C6)nc4c3F)c12
- IC50 (second compound 0.0316 µM): > 10 µM
- IC50 (second compound 0.1 µM): > 10 µM
- IC50 (second compound 0.316 µM): > 10 µM
- IC50 (second compound 1 µM): > 10 µM
- IC50 (second compound 3.16 µM): > 10 µM
- IC50 (second compound 10 µM): > 10 µM
- viability, T/C [1]: 114%
- viability, T/C [2]: 117%
- viability, T/C (second compound 0.0316 µM, first compound 0.316 µM): 118%
- viability, T/C (second compound 0.0316 µM, first compound 1 µM): 126%
- viability, T/C (second compound 0.0316 µM, first compound 3.16 µM): 129%
- viability, T/C (second compound 0.0316 µM, first compound 10 µM): 103%
- viability, T/C [3]: 115%
- viability, T/C [4]: 126%
- viability, T/C (second compound 0.1 µM, first compound 0.316 µM): 130%
- viability, T/C (second compound 0.1 µM, first compound 1 µM): 127%
- viability, T/C (second compound 0.1 µM, first compound 3.16 µM): 128%
- viability, T/C (second compound 0.1 µM, first compound 10 µM): 106%
- viability, T/C [5]: 112%
- viability, T/C [6]: 121%
- viability, T/C (second compound 0.316 µM, first compound 0.316 µM): 120%
- viability, T/C (second compound 0.316 µM, first compound 1 µM): 127%
- viability, T/C (second compound 0.316 µM, first compound 3.16 µM): 130%
- viability, T/C (second compound 0.316 µM, first compound 10 µM): 106%
- viability, T/C [7]: 114%
- viability, T/C [8]: 115%
- viability, T/C (second compound 1 µM, first compound 0.316 µM): 122%
- viability, T/C (second compound 1 µM, first compound 1 µM): 112%
- viability, T/C (second compound 1 µM, first compound 3.16 µM): 126%
- viability, T/C (second compound 1 µM, first compound 10 µM): 102%
- viability, T/C [9]: 100%
- viability, T/C [10]: 108%
- viability, T/C (second compound 3.16 µM, first compound 0.316 µM): 115%
- viability, T/C (second compound 3.16 µM, first compound 1 µM): 115%
- viability, T/C (second compound 3.16 µM, first compound 3.16 µM): 114%
- viability, T/C (second compound 3.16 µM, first compound 10 µM): 92.7%
- viability, T/C [11]: 95.8%
- viability, T/C [12]: 108%
- viability, T/C (second compound 10 µM, first compound 0.316 µM): 114%
- viability, T/C (second compound 10 µM, first compound 1 µM): 100%
- viability, T/C (second compound 10 µM, first compound 3.16 µM): 111%
- viability, T/C (second compound 10 µM, first compound 10 µM): 86.2%
